Melting point data for 122 compounds are collected here from a melting point compilation (Tetko et al.).

The structures appear in SMILES notation.

In general, melting point refers to the temperature of the solid-liquid transition.

`Cc1ccc(-c2nonc2N)cc1` registered a melting point of 139 to 141 °C.

For the compound `O=C1CCc2c(O)cccc21`, the melting point lay in the range of 242 to 244 °C.

As to `Cc1ccc2cc(C=O)c(Cl)nc2c1`, the melting point lay in the range of 148 to 150 °C.

`CCc1cccc(C)c1NC(=O)CCl` displayed a melting point of 100 to 110 °C.

For the compound `C=CCNc1nc(C(=O)OCC)cs1`, the melting point is 84 to 86 °C.

For the compound `Nc1nc(S)nc2sccc12`, the melting point was in the range of 275 to 277 °C.

Consider `NNC(=O)NCc1ccc(Cl)cc1`, for which the melting point lay within 163 to 165 °C.

Take `O=C(O)C1=NN(Cc2ccccc2)C(=O)CC1`: the melting point fell in the range of 179 to 181 °C.

`O=C(O)CS(=O)c1ccc([N+](=O)[O-])cc1` (configuration not stated) gave a melting point of 178 to 180 °C.

`Clc1cc(-n2ccnc2)ncn1` yielded a melting point of 127 to 129 °C.

`COc1c(N)cc(C(C)(C)C)cc1C(C)(C)C` showed a melting point of 79 to 81 °C.

As to `NN1CCN(C(c2ccccc2)c2ccccc2)CC1`, the melting point is 108 to 110 °C.

Take `CCc1cccc(CC)c1-n1ccnc1S`: the melting point lay in the range of 196 to 198 °C.

`CCCc1nnc(S)n1CC(=O)O`: the melting point fell in the range of 226 to 228 °C.

The compound `CN(C)c1nc(CC#N)nc(=N)[nH]1` showed a melting point of 139 to 141 °C.

The compound `Clc1cc(-c2cccnc2)nc2ncnn12` yielded a melting point of 175 to 177 °C.

`CCc1c(C(=O)O)cnn1-c1ccc(Br)cc1`: the melting point was 209 to 211 °C.

On to `Nc1cccc(Cn2[nH]c(=O)ccc2=O)c1`, for which the melting point fell in the range of 163 to 165 °C.

For the compound `Nc1ccccc1N1C(=O)CCC1=O`, the melting point is 231 to 233 °C.

On to `Cc1ccc(-c2n[nH]cc2Br)cc1`, for which the melting point lay within 104 to 106 °C.

Compound `Nc1nnc(-c2cccnc2)[nH]1` came in with a melting point of 207 to 209 °C.

Compound `Cc1nc2c(cnn2-c2cccc(Cl)c2)c(=O)[nH]1` gave a melting point of 114 to 116 °C.

Turning to `CSc1nc(Cl)ccc1C(=O)O`, the melting point is 189 to 191 °C.

Compound `N#CCc1nc2cc(Cl)ccc2s1` registered a melting point of 155 to 157 °C.

`CC(C(=O)O)C(NC(=O)OC(C)(C)C)c1ccccc1` (configuration not stated) yielded a melting point of 71 to 73 °C.

As for `O=C(O)c1ccc(NC(=O)c2cccs2)cc1`, the melting point was in the range of 227 to 229 °C.

`Nc1ccc(-c2cn3c(n2)CCCC3)cc1` displayed a melting point of 209 to 211 °C.

`Cc1nn(C)c(C)c1C(=O)C(=O)O` had a melting point of 160 to 168 °C.

The compound `COC(=O)c1sc2nc(C)nc(Cl)c2c1C` returned a melting point of 149 to 151 °C.

Compound `O=C1NC(=O)C(Cc2c[nH]c3ccccc23)N1` (configuration not stated) registered a melting point of 235 to 237 °C.

For the compound `O=C(O)C1CCCN1C(=O)c1cccs1` (configuration not stated), the melting point is 145 to 147 °C.

`O=C(NCc1ccccc1)c1ccccc1O` had a melting point of 78 to 82 °C.

`Clc1ccc(NCc2ccccc2)cc1` came in with a melting point of 47 to 49 °C.

The compound `Cn1ccnc1C(N)=S` gave a melting point of 134 to 136 °C.

The compound `COc1cccc(C(N)=O)c1O` showed a melting point of 155 to 157 °C.

Turning to `NCCNC(=O)c1ccc(O)cc1`, the melting point fell in the range of 191 to 193 °C.

Compound `CCOC(=O)c1csc(Nc2ccc(OC)cc2)n1` came in with a melting point of 117 to 119 °C.

As to `O=Cc1cccc2nccn12`, the melting point was in the range of 123 to 125 °C.

`O=C1c2ccccc2C(=O)N1CCCS(=O)(=O)Cl` came in with a melting point of 59 to 61 °C.

`Cc1nonc1C(=O)O` registered a melting point of 69 to 71 °C.

`O=S1(=O)CCC(c2nnc(S)o2)C1` (configuration not stated): the melting point fell in the range of 181 to 183 °C.

In turn, `CN(C)C=C1C(=O)CCCC1=O` had a melting point of 111 to 113 °C.

Regarding `O=c1[nH]c(-c2ccc(Cl)s2)nc2c1CCC2`, the melting point fell in the range of 276 to 278 °C.

With `CCOC(=O)c1sc(-c2ccc(F)c(F)c2)nc1C`, the melting point lay in the range of 81 to 83 °C.

`Cc1ccc(S(=O)(=O)C(C#N)c2nc3ccccc3nc2Cl)cc1` (configuration not stated) had a melting point of 105 to 107 °C.

Regarding `COCCn1c(C)cc(C(=O)CCl)c1C`, the melting point fell in the range of 87 to 91 °C.

With `CC(=O)c1nnn(-c2cccc(Cl)c2)c1C`, the melting point lay in the range of 82 to 84 °C.

Regarding `N=c1ccc2sc(N)nc2[nH]1`, the melting point lay in the range of 193 to 195 °C.

In turn, `Cc1ccc(C#N)c(N2CCCC2)c1` yielded a melting point of 68 to 70 °C.

The compound `Nc1nc(CO)n[nH]1` gave a melting point of 193 to 195 °C.

As for `COc1ccc(N)cc1NC(=O)c1ccc(Cl)cc1F`, the melting point fell in the range of 140 to 142 °C.

With `Cc1cccc2c(=O)[nH]c(CC#N)nc12`, the melting point lay in the range of 233 to 235 °C.

`Cc1ccc(C)c(OCCCCC(=O)O)c1` gave a melting point of 56 to 58 °C.

On to `Cn1cc(C(=O)O)c(-c2ccc(N)cc2)n1`, for which the melting point was 226 to 228 °C.

Consider `O=C(c1cnc(Cl)c(Cl)c1)N1CCCCC1`, for which the melting point is 78 to 80 °C.

For the compound `CS(=O)(=O)c1ccc(OCCBr)cc1`, the melting point is 100 to 102 °C.

`NNS(=O)(=O)Cc1ccc([N+](=O)[O-])cc1` gave a melting point of 139 to 141 °C.

As for `CCOC(=O)c1csc(NC)n1`, the melting point was in the range of 115 to 117 °C.

Compound `Nc1ccccc1C(=O)NCCc1ccccc1` had a melting point of 110 to 112 °C.

Regarding `ClCc1cc2c(cc1Br)OCO2`, the melting point lay within 62 to 66 °C.

As for `O=C(O)c1n[nH]c2c1CCC2`, the melting point fell in the range of 287 to 289 °C.

`O=C(O)Cc1ccc(S(=O)(=O)CC(F)(F)F)cc1` returned a melting point of 142 to 144 °C.

In the case of `COc1ccc(C(=O)Cc2ccc(F)cc2)cc1`, the melting point was 106 to 108 °C.

`COC(=O)c1nscc1N` registered a melting point of 54 to 56 °C.

`COc1ccc(N2C(=O)C=CC2=O)cn1` gave a melting point of 122 to 124 °C.

Regarding `O=C(O)C(Oc1ccc(Br)cc1Cl)c1ccccc1` (configuration not stated), the melting point is 135 to 137 °C.

Regarding `NS(=O)(=O)c1cc(F)cc([N+](=O)[O-])c1`, the melting point fell in the range of 184 to 186 °C.

Turning to `CC1(C)OC(=O)c2c1ccnc2Cl`, the melting point was in the range of 158 to 160 °C.

For `Nc1nnc(-c2cccc3ccccc23)[nH]1`, the melting point is 219 to 221 °C.

`FC(F)(F)c1cccc(-c2ncc[nH]2)c1` showed a melting point of 151 to 153 °C.

`Nc1nc2c(Cl)cccc2[nH]1` registered a melting point of 143 to 145 °C.

As to `O=Cc1cccc(OCc2occc2C(=O)O)c1`, the melting point fell in the range of 123 to 125 °C.

In turn, `COc1ccccc1C(NC(=O)OC(C)(C)C)C(=O)O` (configuration not stated) registered a melting point of 146 to 148 °C.

In turn, `CC(C)(C)C1CCCCC(=O)N1` (configuration not stated) registered a melting point of 126 to 128 °C.

`O=C(O)c1ccccc1Oc1cccc(Br)c1` returned a melting point of 108 to 110 °C.

In the case of `O=C1CCCc2sccc21`, the melting point lay in the range of 38 to 40 °C.

Compound `NC(=S)Cc1nccn1Cc1ccccc1` displayed a melting point of 131 to 133 °C.

With `O=C(CCl)NCc1ccc(C(=O)O)cc1`, the melting point was 193 to 195 °C.

`CCOC(C)c1nc(C)c(C(=O)O)s1` (configuration not stated) had a melting point of 112 to 114 °C.

`Cc1sc2ncn(N)c(=O)c2c1C` registered a melting point of 131 to 133 °C.

`CC(N)c1cc(F)ccc1N1CCC(O)CC1` (configuration not stated) registered a melting point of 138 to 140 °C.

On to `O=C(O)c1ccc(COCC(F)(F)F)cc1`, for which the melting point fell in the range of 149 to 151 °C.

With `NCc1ccc(N2CCC(CO)CC2)cc1`, the melting point was 138 to 140 °C.

As for `O=C(O)C1CCCN(C(=O)c2ccccc2)C1` (configuration not stated), the melting point lay in the range of 189 to 191 °C.

`Nc1cc(CCCc2cccs2)no1` returned a melting point of 43 to 45 °C.

`Cc1ccc(SC(C(=O)O)c2ccccc2)c(C)c1` (configuration not stated) yielded a melting point of 130 to 132 °C.

`O=C(N=C=S)c1ccc(Cl)c(Cl)c1` registered a melting point of 49 to 51 °C.

For `COC(=O)c1ccccc1CCC(=O)O`, the melting point lay within 74 to 76 °C.

For `O=CC(Br)C=Nc1cnc(Br)cn1` (configuration not stated), the melting point lay within 177 to 179 °C.

`CCNCC(=O)Nc1c(C)cccc1C` yielded a melting point of 45 to 47 °C.

For `Cc1nn(-c2cccc(F)c2)c(C(F)F)c1C(=O)O`, the melting point lay in the range of 187 to 189 °C.

Consider `COc1ccc(CC(N)=O)cc1F`, for which the melting point was in the range of 173 to 175 °C.

`O=C(O)c1csc(-c2ccccc2F)n1` gave a melting point of 159 to 161 °C.

Compound `O=C(c1cccc(S(=O)(=O)Cl)c1)N1CCCC1` returned a melting point of 65 to 67 °C.

`NC(=NO)c1ccc(Br)cc1` returned a melting point of 153 to 155 °C.

For `CC(CC(=O)O)S(=O)(=O)c1ccc(F)cc1` (configuration not stated), the melting point was 126 to 128 °C.

Regarding `CC(C)(C)C(=O)N1CCc2cc(C(=O)O)ccc21`, the melting point is 195 to 197 °C.

Compound `O=C1C(Br)CCN1C1CCOCC1` (configuration not stated) came in with a melting point of 67 to 69 °C.

The compound `CC(C)(C)C(O)C(=O)O` (configuration not stated) returned a melting point of 65 to 67 °C.

In turn, `O=C(O)CCCc1ccc(O)cc1` registered a melting point of 106 to 108 °C.

Compound `CC(=O)Cc1ccc(-c2ccccc2)cc1` yielded a melting point of 49 to 51 °C.

In turn, `ClCc1ccc(-c2nc3cccc(Cl)c3s2)cc1` gave a melting point of 173 to 175 °C.

In turn, `NNC(=O)CCN1CCN(c2ccccc2)CC1` showed a melting point of 120 to 122 °C.

For the compound `Clc1nc(Cl)c2ccccc2n1`, the melting point was 117 to 119 °C.

`O=C1CC2CCCN2c2ccccc2N1` (configuration not stated) registered a melting point of 139 to 141 °C.

In the case of `O=C(O)CCCOc1ccccc1Cl`, the melting point is 84 to 86 °C.

Compound `O=c1cc(I)cnn1Cc1ccccc1` showed a melting point of 156 to 158 °C.

For `Nc1cc(S(N)(=O)=O)ccc1S`, the melting point fell in the range of 220 to 222 °C.

`Cn1c(=O)[nH]c2cnccc21`: the melting point was in the range of 266 to 268 °C.

`O=C(CCl)Nc1nc2ccc(F)cc2s1`: the melting point lay in the range of 170 to 172 °C.

Compound `CC(=O)c1ccc(S(C)=O)cc1` (configuration not stated) came in with a melting point of 105 to 107 °C.

In turn, `CC(C)(C)OC(=O)N1C(=O)N(CC#N)C(C)(C)C1=O` gave a melting point of 149 to 151 °C.

For `CC(C)Oc1ccc(S(=O)(=O)N(C)C)cc1N`, the melting point fell in the range of 111 to 113 °C.

Take `CC(C)c1ccccc1Oc1ccccc1C(=O)O`: the melting point was 133 to 135 °C.

In turn, `CN(C1CCCCC1)S(=O)(=O)c1ccccc1N` yielded a melting point of 98 to 101 °C.

For the compound `NS(=O)(=O)c1cccc(N2CC(C(=O)O)CC2=O)c1` (configuration not stated), the melting point is 168 to 170 °C.

Regarding `Nc1cnn(CC(=O)Nc2cccnc2)c1`, the melting point lay in the range of 117 to 119 °C.

`O=C(NCCCN1CCCC1)OCC(F)(F)F` came in with a melting point of 36 to 38 °C.

In turn, `O=C(COc1ccccc1)Nc1ccc(O)cc1C(=O)O` showed a melting point of 254 to 256 °C.

In turn, `CC1C=CC2C(=O)N(CC(F)(F)F)C(=O)C2C1C(=O)O` (configuration not stated) displayed a melting point of 166 to 168 °C.

`O=C(O)CCc1nc2cc(Cl)ccc2s1` yielded a melting point of 145 to 147 °C.

The compound `Cc1nc(-c2cccs2)ccc1C(=O)O` gave a melting point of 191 to 193 °C.
